Experimental findings from PubChem BioAssay (NCI) are described below.

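In this assay, cells in 96-well plates receive the compound at five concentrations for 48 hours. Endpoints are linearly interpolated between the surrounding concentrations. The concentration for 50% growth inhibition is given as GI50. TGI is the concentration that stops growth completely.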

Among the test systems are SF-268 CNS; OVCAR-8 ovarian; RPMI-8226 leukemia; IGROV1 ovarian; TK-10 renal; CAKI-1 renal; NCI/ADR-RES ovarian; COLO 205 colon; SK-OV-3 ovarian; HS 578T breast.
Common to all, as to experiment: inhibition of tumour cell growth, NCI panel, 48 h

In the case of `O=C1c2ccc3c4c(ccc(c24)C(=O)N1CCCNCc1ccccc1Cl)C(=O)N(CCCNCc1ccccc1Cl)C3=O`, the GI50 was 0.477 µM in the assay on SF-268 CNS; 0.148 µM with OVCAR-8 ovarian; 0.39 µM with RPMI-8226 leukemia; 0.275 µM in the assay with IGROV1 ovarian; 0.179 µM in the assay on TK-10 renal; 0.317 µM in the assay on CAKI-1 renal. In addition, the GI50 is 0.142 µM in the assay on NCI/ADR-RES ovarian, 0.0896 µM in the assay with COLO 205 colon, 0.862 µM with SK-OV-3 ovarian and 0.984 µM in the assay with HS 578T breast. Further, the TGI was found to be 1.49 µM with SF-268 CNS; 0.533 µM in the assay with OVCAR-8 ovarian; 1.86 µM with RPMI-8226 leukemia; 1.63 µM in the assay with IGROV1 ovarian; 0.724 µM with TK-10 renal; 1.46 µM in the assay on CAKI-1 renal. For the same compound, the TGI in the assay with NCI/ADR-RES ovarian was determined as 0.456 µM; in the assay with COLO 205 colon it was 0.166 µM; with SK-OV-3 ovarian, 3.18 µM; in the assay on HS 578T breast, 11.9 µM.
`COC(=O)Nc1nc2ccc(Oc3cccc(NC(=O)Nc4cc(C(F)(F)F)ccc4F)c3)cc2[nH]1`: the GI50 in the assay with SF-268 CNS is 18.5 µM; with OVCAR-8 ovarian, over 25 µM; in the assay on RPMI-8226 leukemia, over 20.8 µM; with IGROV1 ovarian it was 12.1 µM; in the assay with TK-10 renal, over 25 µM; in the assay with CAKI-1 renal, 14.3 µM. Also, the GI50 was 24.8 µM in the assay with NCI/ADR-RES ovarian, 8.82 µM with COLO 205 colon, 10.2 µM with SK-OV-3 ovarian and 7.47 µM in the assay with HS 578T breast. Also, the TGI with SF-268 CNS, in the assay with OVCAR-8 ovarian, in the assay with RPMI-8226 leukemia, in the assay on IGROV1 ovarian, in the assay on TK-10 renal and with CAKI-1 renal was over 25 µM throughout. In addition, the TGI in the assay on NCI/ADR-RES ovarian, with COLO 205 colon, in the assay with SK-OV-3 ovarian and in the assay with HS 578T breast was over 25 µM throughout.
For the compound `COc1ccc(N(/C=C/C(=O)C(F)(F)F)CC(=O)c2ccc(F)cc2)cc1`, the GI50 was 20.3 µM in the assay on SF-268 CNS; 32.1 µM in the assay with OVCAR-8 ovarian; 15.2 µM in the assay on RPMI-8226 leukemia; 13 µM with IGROV1 ovarian; 42.1 µM in the assay with TK-10 renal; 21.7 µM in the assay with CAKI-1 renal. Besides, the GI50 with NCI/ADR-RES ovarian is 31.2 µM; in the assay with COLO 205 colon, 26.9 µM; with SK-OV-3 ovarian it was 42.9 µM; in the assay on HS 578T breast it was 27.8 µM. The TGI with SF-268 CNS is 45.2 µM; in the assay on OVCAR-8 ovarian, over 100 µM; in the assay with RPMI-8226 leukemia, 47.3 µM; with IGROV1 ovarian, 30.7 µM; in the assay with TK-10 renal, 96.4 µM; in the assay on CAKI-1 renal it was 72.1 µM. For the same compound, the TGI with NCI/ADR-RES ovarian is 87.4 µM; with COLO 205 colon it was 84.5 µM; in the assay with SK-OV-3 ovarian, over 100 µM; with HS 578T breast, 89.1 µM.
Turning to `COc1ccc(/C=C(\C(=O)NCc2cccnc2)S(=O)(=O)c2ccccc2)cc1OC`, the GI50 with SF-268 CNS is 3.32 µM; with OVCAR-8 ovarian, 3.84 µM; with RPMI-8226 leukemia it was 2.43 µM; in the assay with IGROV1 ovarian, 2.22 µM; in the assay on TK-10 renal it was 5.57 µM; in the assay on CAKI-1 renal, 3.29 µM. For the same compound, the GI50 in the assay with NCI/ADR-RES ovarian is 18.2 µM; in the assay on COLO 205 colon, 2.77 µM; with SK-OV-3 ovarian, 4.1 µM; in the assay on HS 578T breast, 3.41 µM. The TGI worked out at 15.9 µM in the assay on SF-268 CNS; 25.1 µM with OVCAR-8 ovarian; 6.78 µM in the assay on RPMI-8226 leukemia; 11.3 µM in the assay on IGROV1 ovarian; 18.1 µM in the assay on TK-10 renal; 11.7 µM with CAKI-1 renal. The TGI was over 100 µM in the assay with NCI/ADR-RES ovarian, 6.63 µM in the assay with COLO 205 colon, 13.2 µM in the assay with SK-OV-3 ovarian and 26.3 µM in the assay on HS 578T breast.
As for `Cc1cnc(CNC(=O)c2c(=O)c3ccc(N4CCCN(C)CC4)nc3n3c2sc2ccccc23)cn1`, the GI50 in the assay on SF-268 CNS is 1.55 µM; with OVCAR-8 ovarian, 1.09 µM; with RPMI-8226 leukemia it was 1.54 µM; with IGROV1 ovarian, 1.89 µM; in the assay on TK-10 renal, 8.94 µM; with CAKI-1 renal, 2.49 µM. Moreover, the GI50 in the assay on NCI/ADR-RES ovarian is 1.18 µM; in the assay with COLO 205 colon, 1.07 µM; in the assay on SK-OV-3 ovarian, 12.5 µM; in the assay on HS 578T breast, 16.6 µM. The TGI with SF-268 CNS worked out at 25.6 µM; in the assay on OVCAR-8 ovarian it was 21.2 µM; in the assay with RPMI-8226 leukemia, 6.1 µM; in the assay with IGROV1 ovarian it was 22.2 µM; in the assay on TK-10 renal it was 23 µM; with CAKI-1 renal it was 18 µM. The TGI with NCI/ADR-RES ovarian turned out to be 30.6 µM; in the assay with COLO 205 colon it was 22.8 µM; with SK-OV-3 ovarian it was 28.9 µM; with HS 578T breast, 47.4 µM.
In the case of `CN1CCc2[nH]nc(-c3n[nH]c4c3CN(C)CC4)c2C1`, the TGI in the assay with SF-268 CNS, in the assay with OVCAR-8 ovarian, with RPMI-8226 leukemia, in the assay on IGROV1 ovarian, in the assay on TK-10 renal and in the assay with CAKI-1 renal was over 100 µM throughout. The TGI in the assay on NCI/ADR-RES ovarian, with COLO 205 colon, with SK-OV-3 ovarian and with HS 578T breast was over 100 µM in each case.
